Values of other authors as cited in paper PMC12368482, “Antiprotozoal Activity of Highly Substituted Pyrazole and Pyrimidine Derivatives” (Chemmedchem, 2025).

Legend:
Set-up in all cases: method as in PMID 17949068
[1] = tested on: P. falciparum chloroquine (CQ)‐resistant strain; details: ref [15]; read-out: IC50 against P. falciparum CQ‐resistant strain; cited from earlier work
normal myoblast L6 cells = details: ref [15]; cited from earlier work
Leishmania donovani = details: ref [15]; read-out: IC50 against Leishmania donovani; cited from earlier work

In the case of O=[N+]([O-])c1ccc(-n2nc(-c3ccc(Oc4ccccc4)cc3)cc2N2CCOCC2)cc1 [II], the IC50 [1] is listed as 3.7 µM, the “cytotoxicity against normal myoblast L6 cells” value (normal myoblast L6 cells) is listed as “not cytotoxic” and the IC50 (Leishmania donovani) is listed as 4.8 µM.
